Data taken from patent US20080221195A1, “1,2-DIARYLACETYLENE DERIVATIVES OF ACYLTRYPTOPHANOLS” (priority 2006, published 2008).

These molecules were tested against T1, human FSH receptor (Homo sapiens, UniProt P23945) (assay: HTRF assay for measuring cAMP in cells (FSH-antagonistic effect)). Details: hFSHR clone 16 cells (CHO cells stably transfected with the human FSH receptor), in the presence of 1e-9 mol/l hFSH, 37° C. for 2 h.
T1 construct: expressed in transfected cells; host or cells: CHO cells (hFSHR clone 16)
T1 sequence (P23945 18-695): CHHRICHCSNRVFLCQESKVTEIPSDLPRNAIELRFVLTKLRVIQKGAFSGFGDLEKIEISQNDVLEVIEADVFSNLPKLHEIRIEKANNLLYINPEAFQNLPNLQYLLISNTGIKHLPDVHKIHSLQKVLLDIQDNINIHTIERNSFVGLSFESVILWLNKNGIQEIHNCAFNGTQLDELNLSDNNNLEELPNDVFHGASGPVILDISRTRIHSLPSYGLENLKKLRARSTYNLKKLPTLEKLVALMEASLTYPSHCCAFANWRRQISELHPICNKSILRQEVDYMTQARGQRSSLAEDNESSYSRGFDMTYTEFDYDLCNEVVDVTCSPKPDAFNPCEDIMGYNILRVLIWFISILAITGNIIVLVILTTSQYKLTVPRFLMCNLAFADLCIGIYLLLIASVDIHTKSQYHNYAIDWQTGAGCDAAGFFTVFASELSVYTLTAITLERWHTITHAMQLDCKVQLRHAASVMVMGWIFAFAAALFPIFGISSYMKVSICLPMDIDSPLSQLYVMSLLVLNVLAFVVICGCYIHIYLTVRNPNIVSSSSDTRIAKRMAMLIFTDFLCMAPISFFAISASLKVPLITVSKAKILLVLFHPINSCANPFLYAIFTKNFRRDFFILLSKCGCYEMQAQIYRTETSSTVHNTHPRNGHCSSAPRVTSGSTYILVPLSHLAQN
Format: cell-based
Protocol: HTRF Assay for Measuring cAMP in Cells
The method is based on a competitive immunoassay between native cAMP, which has been produced by the cells, and cAMP which is labelled with cAMPD2 conjugate. The tracer binding was visualized by a monoclonal antibody, anti-cAMP labelled with cryptate [HTRF=homogeneous time-resolved fluorescence].
The specific signal is inversely proportional to the cAMP concentration of the samples employed.
The 665 nm/620 nm fluorescence ratio was evaluated.
Materials used: 96-well plates for the tissue culture, 96-well plates with black edge and black base (e.g. Fluotrac 600 from Greiner), 96-well plates for the substance dilutions of polypropylene and cAMP Femtomolar (4000 wells Kit, CIS Bio International # 62AM5PEJ).
Reagent used: BSA (bovine serum albumin) Fraction V protease-free, IBMX (3-isobutyl-1-methylxanthine), hFSH (human follicle stimulating hormone), Triton X-100 analytical grade, potassium fluoride analytical grade, G 418 (Geneticin) and Accutase.
Buffer 1 (washing and testing buffer) contained PBS, 1 mM CaCl2, 1 mM MgCl2, 0.2% glucose; 0.1% BSA, 1 mM IBMX.
Buffer 2 (2× lysis buffer) contained 1% Triton X-100 in PBS (without CaCl2 and MgCl2).
Buffer 3 (assay buffer) contained 50 mM potassium phosphate buffer (pH 7.0); 800 mM potassium fluoride; 0.2% BSA (always added fresh).
On day 1, the cells were seeded in 96-well plates (3×10^4 cells per well hFSHR clone 16 cells (CHO cells stably transfected with the human FSH receptor in 150 μl of medium). The next day, test substance dilutions were made up. For this purpose, all the substances were diluted in ice-cold buffer 1 (with or without hFSH), and the substance dilutions were placed on ice until applied to the cells. The cell supernatant was then aspirated off, and the cells were washed 2× with 200 μl of buffer 1. The cells were treated with 60 μl of the appropriate substance concentrations at 37° C. for 2 h. The cells were then lysed with 60 μl of buffer 2 (put onto the supernatant) (on a plate shaker at RT for 30 min). The test conjugates (cAMP-D2 and anti-cAMP cryptate, CIS Bio) were diluted in buffer 3 in accordance with the manufacturers' information. The actual mixture for measurement was pipetted into a black 96-well plate (in each case 15 μl of the cell lysate diluted with 35 μl of buffer 1; firstly 25 μl of cAMP-D2 conjugate were pipetted and, after 10 min, 25 μl of the anti-cAMP cryptate were added). This is followed by incubation at RT for 90 minutes. The measurement was carried out in a PheraStar (BMG).
Dose-effect curve (hFSH) for the human receptor: 1e-8, 3e-9, 1e-9, 3e-10, 1e-10, 3e-11, 1e-11, 3e-12 mol/l.
The test substances were employed in suitable dilutions in the absence (test for agonism) and in the presence of 1e-9 mol/l hFSH.
The values of the well ratio were averaged and then entered directly in SigmaPlot versus the concentrations. The maximum and minimum values were determined for each plate, and half the difference is to be regarded as IC50.

Structure (SMILES)	IC50 [nM]
CC(C)Oc1ccc(C#Cc2cncc(C3=NNC(=O)C3)c2)cc1C(=O)N[C@@H](CO)Cc1c[nH]c2ccccc12 [Example 66, N—[(R)-1-Hydroxymethyl-2-(1H-indol-3-yl)-ethyl]-2-isopropoxy-5-[5-(5-oxo-4,5-dihydro-1H-pyrazol-3-yl)-pyridin-3-ylethynyl]-benzamide]	10
Cc1cc(C)cc(C#Cc2ccc(OC(C)C)c(C(=O)N[C@@H](CO)Cc3c[nH]c4ccccc34)c2)c1 [Example 40, 5-(3,5-Dimethyl-phenylethynyl)-N-[(R)-1-hydroxymethyl-2-(1H-indol-3-yl)-ethyl]-2-isopropoxy-benzamide]	500
CC(C)Oc1ccc(C#Cc2ccc3[nH]ncc3c2)cc1C(=O)N[C@@H](CO)Cc1c[nH]c2ccccc12 [Example 113, N-[(R)-2-Hydroxy-1-(1H-indol-3-ylmethyl)-ethyl]-5-(1H-indazol-5-ylethynyl)-2-isopropoxy-benzamide]	25
COC(=O)CCNC(=O)c1cccc(C#Cc2ccc(OC(C)C)c(C(=O)N[C@@H](CO)Cc3c[nH]c4ccccc34)c2)c1 [Example 165, 3-(3-{3-[(R)-1-Hydroxymethyl-2-(1H-indol-3-yl)-ethylcarbamoyl]-4-isopropoxy-phenylethynyl}-benzoylamino)-propionic acid methyl ester]	15
CC(C)Oc1ccc(C#Cc2ccccc2C(F)(F)F)cc1C(=O)N[C@@H](CO)Cc1c[nH]c2ccccc12 [Example 119, N-[(R)-2-Hydroxy-1-(1H-indol-3-ylmethyl)-ethyl]-2-isopropoxy-5-(2-trifluoromethyl-phenylethynyl)-benzamide]	25
CNC(=O)c1cccc(C#Cc2ccc(Cl)c(C(=O)N[C@@H](CO)Cc3c[nH]c4ccccc34)c2)c1 [Example 79, 2-Chloro-N-[(R)-2-hydroxy-1-(1H-indol-3-ylmethyl)-ethyl]-5-(3-methylcarbamoyl-phenylethynyl)-benzamide]	3500
CC(C)Oc1ccc(C#Cc2ccc(C(=O)NCCN3CCNC(=O)C3)cc2)cc1C(=O)N[C@@H](CO)Cc1c[nH]c2ccccc12 [Example 173, N-[(R)-1-Hydroxymethyl-2-(1H-indol-3-yl)-ethyl]-2-isopropoxy-5-{4-[2-(3-oxo-piperazin-1-yl)-ethylcarbamoyl]-phenylethynyl}-benzamide]	35
CNC(=O)CCCc1ccc(C#Cc2ccc(OC(C)C)c(C(=O)N[C@@H](CO)Cc3c[nH]c4ccccc34)c2)cc1 [Example 70, N-[(R)-1-Hydroxymethyl-2-(1H-indol-3-yl)-ethyl]-2-isopropoxy-5-[4-(3-methylcarbamoyl-propyl)-phenylethynyl]-benzamide]	45
CC(C)Oc1ccc(C#Cc2ccc(C(=O)O)o2)cc1C(=O)N[C@@H](CO)Cc1c[nH]c2ccccc12 [Example 88, 5-{3-[(R)-1-Hydroxymethyl-2-(1H-indol-3-yl)-ethylcarbamoyl]-4-isopropoxy-phenylethynyl}-furan-2-carboxylic acid]	60
CC(C)Oc1ccc(C#Cc2ccc3ccccc3c2)cc1C(=O)N[C@@H](CO)Cc1c[nH]c2ccccc12 [Example 52, N-[(R)-1-Hydroxymethyl-2-(1H-indol-3-yl)-ethyl]-2-isopropoxy-5-naphthalen-2-ylethynyl-benzamide]	80

Continued by falling IC50, values first:

IC50 [nM]	Structure (SMILES)
700	CNC(=O)c1cccc(C#Cc2ccc(Cl)c(C(=O)NC(CO)Cc3c[nH]c4cc(F)ccc34)c2)c1 (stereo not drawn) [Example 83, 2-Chloro-N-[2-(6-fluoro-1H-indol-3-yl)-1-hydroxymethyl-ethyl]-5-(3-methylcarbamoyl-phenylethynyl)-benzamide]
350	CC(C)Oc1ccc(C#Cc2ccc(C#N)cc2)cc1C(=O)N[C@@H](CO)Cc1c[nH]c2ccccc12 [Example 110, 5-(4-Cyano-phenylethynyl)-N-[(R)-1-hydroxymethyl-2-(1H-indol-3-yl)-ethyl]-2-isopropoxy-benzamide]
300	CC(C)Oc1ccc(C#Cc2cnc(N3CCOCC3)nc2)cc1C(=O)N[C@@H](CO)Cc1c[nH]c2ccccc12 [Example 145, N-[(R)-1-Hydroxymethyl-2-(1H-indol-3-yl)-ethyl]-2-isopropoxy-5-(2-morpholin-4-yl-pyrimidin-5-ylethynyl)-benzamide]
150	COc1ccc(C#Cc2ccc(OC(C)C)c(C(=O)N[C@@H](CO)Cc3c[nH]c4ccccc34)c2)cc1F [Example 30, 5-(3-Fluoro-4-methoxy-phenylethynyl)-N-[(R)-2-hydroxy-1-(1H-indol-3-ylmethyl)-ethyl]-2-isopropoxy-benzamide]
150	CC(C)Oc1ccc(C#Cc2cncnc2)cc1C(=O)N[C@@H](CO)Cc1c[nH]c2ccccc12 [Example 46, N-[(R)-1-Hydroxymethyl-2-(1H-indol-3-yl)-ethyl]-2-isopropoxy-5-pyrimidin-5-ylethynyl-benzamide]
80	CC(C)Oc1ccc(C#Cc2ccc(N3CCCC3=O)cc2)cc1C(=O)N[C@@H](CO)Cc1c[nH]c2ccccc12 [Example 124, N-[(R)-1-Hydroxymethyl-2-(1H-indol-3-yl)-ethyl]-2-isopropoxy-5-[4-(2-oxo-pyrrolidin-1-yl)-phenylethynyl]-benzamide]
30	Cc1ccc(C)c(C#Cc2ccc(OC(C)C)c(C(=O)N[C@@H](CO)Cc3c[nH]c4ccccc34)c2)c1 [Example 48, 5-(2,5-Dimethyl-phenylethynyl)-N-[(R)-1-hydroxymethyl-2-(1H-indol-3-yl)-ethyl]-2-isopropoxy-benzamide]
30	CC(C)Oc1ccc(C#Cc2ccc3c(c2)C(=O)NCC3)cc1C(=O)N[C@@H](CO)Cc1c[nH]c2ccccc12 [Example 68, N-[(R)-1-Hydroxymethyl-2-(1H-indol-3-yl)-ethyl]-2-isopropoxy-5-(1-oxo-1,2,3,4-tetrahydro-isoquinolin-7-ylethynyl)-benzamide]
30	CC(C)Oc1ccc(C#Cc2cccc(-c3nnn[nH]3)c2)cc1C(=O)N[C@@H](CO)Cc1c[nH]c2ccccc12 [Example 148, N-[(R)-2-Hydroxy-1-(1H-indol-3-ylmethyl)-ethyl]-2-isopropoxy-5-[3-(1H-tetrazol-5-yl)-phenylethynyl]-benzamide]
20	CC(C)Oc1ccc(C#Cc2ccc(C(=O)NCCC(N)=O)cc2)cc1C(=O)N[C@@H](CO)Cc1c[nH]c2ccccc12 [Example 177, 5-[4-(2-Carbamoyl-ethylcarbamoyl)-phenylethynyl]-N-[(R)-1-hydroxymethyl-2-(1H-indol-3-yl)-ethyl]-2-isopropoxy-benzamide]
15	CC(C)Oc1ccc(C#Cc2ccc3c(c2)C(=O)NC3)cc1C(=O)N[C@@H](CO)Cc1c[nH]c2ccccc12 [Example 155, N-[(R)-1-Hydroxymethyl-2-(1H-indol-3-yl)-ethyl]-2-isopropoxy-5-(3-oxo-2,3-dihydro-1H-isoindol-5-ylethynyl)-benzamide]
